Measured values taken from patent US20240409523A1, “SUGAR AMIDES AND MIXTURES THEREOF” (Clariant International Ltd, priority 2021, published 2024).

Legend:
Format in all cases: cell-based
Escherichia coli = test: MIC, agar dilution (bacteria); conditions: Escherichia coli (B); Caso-Agar, pH 7 (+/−0.2)
Method: (§1) For testing the inhibition of bacteria, the sample was diluted in demineralized water and added in different concentrations to liquid Caso-Agar at 50° C. and is buffered to pH 7 (+/−0.2). […] Each of the solutions is poured into a petri-dish and inoculated with the same amount of bacteria, yeast or mold respectively. The minimum inhibitory concentration (MIC) is the lowest concentration of the sample that inhibits the growth of the respective microorganism where the next lowest dilution fails to inhibit the growth of said microorganism.

Staphylococcus aureus = test: MIC, agar dilution (bacteria); conditions: Staphylococcus aureus (B); Caso-Agar, pH 7 (+/−0.2)
Method: as §1

Klebsiella pneumoniae = test: MIC, agar dilution (bacteria); conditions: Klebsiella pneumoniae (B); Caso-Agar, pH 7 (+/−0.2)
Method: as §1

Serratia marcescens = test: MIC, agar dilution (bacteria); conditions: Serratia marcescens (B); Caso-Agar, pH 7 (+/−0.2)
Method: as §1

Pluralibacter gergoviae = test: MIC, agar dilution (bacteria); conditions: Pluralibacter gergoviae (B); Caso-Agar, pH 7 (+/−0.2)
Method: as §1

Pseudomonas aeruginosa = test: MIC, agar dilution (bacteria); conditions: Pseudomonas aeruginosa (B); Caso-Agar, pH 7 (+/−0.2)
Method: as §1

Enterobacter aerogenes = test: MIC, agar dilution (bacteria); conditions: Enterobacter aerogenes (B); Caso-Agar, pH 7 (+/−0.2)
Method: as §1

Burkholderia cepacia = test: MIC, agar dilution (bacteria); conditions: Burkholderia cepacia (B); Caso-Agar, pH 7 (+/−0.2)
Method: as §1

Penicillium minioluteum = test: MIC, agar dilution (yeast and mold); conditions: Penicillium minioluteum (M); Sabouraud-4% Dextrose-Agar, pH 5.6 (+/−0.2)
Method: as §1

Candida parapsilosis = test: MIC, agar dilution (yeast and mold); conditions: Candida parapsilosis (Y); Sabouraud-4% Dextrose-Agar, pH 5.6 (+/−0.2)
Method: as §1

Saccharomyces cerevisiae = test: MIC, agar dilution (yeast and mold); conditions: Saccharomyces cerevisiae (Y); Sabouraud-4% Dextrose-Agar, pH 5.6 (+/−0.2)
Method: as §1

Aspergillus brasiliensis = test: MIC, agar dilution (yeast and mold); conditions: Aspergillus brasiliensis (M); Sabouraud-4% Dextrose-Agar, pH 5.6 (+/−0.2)
Method: as §1

Fusarium solani = test: MIC, agar dilution (yeast and mold); conditions: Fusarium solani (M); Sabouraud-4% Dextrose-Agar, pH 5.6 (+/−0.2)
Method: as §1

Penicillium funicolosum = test: MIC, agar dilution (yeast and mold); conditions: Penicillium funicolosum (M); Sabouraud-4% Dextrose-Agar, pH 5.6 (+/−0.2)
Method: as §1

Aspergillus terreus = test: MIC, agar dilution (yeast and mold); conditions: Aspergillus terreus (M); Sabouraud-4% Dextrose-Agar, pH 5.6 (+/−0.2)
Method: as §1

Candida albicans = test: MIC, agar dilution (yeast and mold); conditions: Candida albicans (Y); Sabouraud-4% Dextrose-Agar, pH 5.6 (+/−0.2)
Method: as §1

Cyclic N-Octanoyl/Decanoyl-N-Methylxylosamide [N-Methyl Xylosamid]
MIC of N-Methyl Xylosamid* (70% active) in water (Escherichia coli): 15000 ppm
MIC of N-Methyl Xylosamid* (70% active) in water (Staphylococcus aureus): <500 ppm
MIC of N-Methyl Xylosamid* (70% active) in water (Klebsiella pneumoniae): 1000 ppm
MIC of N-Methyl Xylosamid* (70% active) in water (Serratia marcescens): 10000 ppm
MIC of N-Methyl Xylosamid* (70% active) in water (Pluralibacter gergoviae): 15000 ppm
MIC of N-Methyl Xylosamid* (70% active) in water (Pseudomonas aeruginosa): 10000 ppm
MIC of N-Methyl Xylosamid* (70% active) in water (Enterobacter aerogenes): 15000 ppm
MIC of N-Methyl Xylosamid* (70% active) in water (Burkholderia cepacia): 7500 ppm
MIC of N-Methyl Xylosamid* (70% active) in water (Penicillium minioluteum): 1500 ppm
MIC of N-Methyl Xylosamid* (70% active) in water (Candida parapsilosis): 7500 ppm
MIC of N-Methyl Xylosamid* (70% active) in water (Saccharomyces cerevisiae): 1000 ppm
MIC of N-Methyl Xylosamid* (70% active) in water (Aspergillus brasiliensis): 2000 ppm
MIC of N-Methyl Xylosamid* (70% active) in water (Fusarium solani): 1000 ppm
MIC of N-Methyl Xylosamid* (70% active) in water (Penicillium funicolosum): 1000 ppm
MIC of N-Methyl Xylosamid* (70% active) in water (Aspergillus terreus): 3000 ppm
MIC of N-Methyl Xylosamid* (70% active) in water (Candida albicans): 3000 ppm
